The values below are quoted from earlier work in publication PMC9792171, “Design and synthesis of new thiazolidinone/uracil derivatives as antiproliferative agents targeting EGFR and/or BRAF^V600E” (Frontiers in Chemistry, 2022).

Data set [1] relates to human lung carcinoma cell lines. Set-up: method as in Xiong et al., 2008. The settings on record: panel of human lung carcinoma cell lines; ref Xiong et al., 2008; read-out: IC50, inhibition of cell proliferation; cited from earlier work.
Data set [2] concerns lung cancer (A549) cell line. Set-up: method as in Aziz et al., 2021. The settings on record: ref Aziz et al., 2021; read-out: IC50 against lung cancer (A549) cell line; cited from earlier work.
The next data set deals with T1, EGFR (Homo sapiens, UniProt P00533).
T1 construct: EGFR cytoplasmic domain (EGFR-CD, amino acids 645–1186); His6 (N); made in house; host or cells: Sf-9 insect cells (baculovirus; pBlueBacHis2B and pFASTBacHTc)
T1 sequence (P00533 669-1210): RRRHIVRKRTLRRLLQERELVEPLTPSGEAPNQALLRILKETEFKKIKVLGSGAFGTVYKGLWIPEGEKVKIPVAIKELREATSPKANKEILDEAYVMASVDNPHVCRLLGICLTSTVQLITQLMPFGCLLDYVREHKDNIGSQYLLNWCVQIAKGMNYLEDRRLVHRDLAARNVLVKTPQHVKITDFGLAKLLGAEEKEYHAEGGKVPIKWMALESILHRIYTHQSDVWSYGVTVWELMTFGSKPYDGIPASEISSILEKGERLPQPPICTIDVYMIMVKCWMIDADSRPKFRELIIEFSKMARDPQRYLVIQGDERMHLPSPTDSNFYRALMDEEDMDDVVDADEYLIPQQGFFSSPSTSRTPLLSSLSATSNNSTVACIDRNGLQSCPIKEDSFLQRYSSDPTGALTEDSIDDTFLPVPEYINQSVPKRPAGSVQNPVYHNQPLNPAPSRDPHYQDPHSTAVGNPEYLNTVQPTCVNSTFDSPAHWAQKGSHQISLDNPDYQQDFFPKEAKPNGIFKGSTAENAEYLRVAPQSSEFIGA
Further details: method as in Aziz et al., 2021. The settings on record: ref Aziz et al., 2021; cited from earlier work.

The structures appear in SMILES notation.

As for `COC(=O)c1ccccc1NC(=S)N(CCN1CCCCC1)Cc1cc2cc(C)ccc2[nH]c1=O` [DC27], the IC50 in data set [1] is 2500 to 12900 nM.

In the case of `O=C1N=C(Nn2c(-c3ccccc3)nc3ccccc3c2=O)S/C1=C/c1ccccc1` [Compound III], the IC50 in data set [2] is 720 nM; on EGFR, 65 nM.
